The test system of one assay is ARPE19 cells. Description: MTT viability assay. The format is cell-based, human. The note with it: 24 h; for cell viability reduced to: ARPE19, 50 µM (highest concentration), DMSO as reference. As for the experimental part: Protein kinase CK2 is essential for the survival of cells. Therefore, we tested the impact of the CK2 inhibitors on the viability of cells in both lines. The inhibitors were applied in increasing concentrations up to 50 µM to growing cell cultures and the viability was analyzed by a MTT assay after 24 h of treatment. The effect of the compounds on the growth of the normal ARPE19 cells was rather moderate (Figure 5A). 5 had no impact on ARPE19 cell viability. 4b reduced the viability to 70% in its highest concentration and 4a exerted the strongest influence by reducing the ratio of viable cells to 40% when applying a 50 µM dose. In contrast LNCaP cells were strongly impaired by the treatment with the dibenzofurans (Figure 5B): Using 10 µM of the different inhibitors, we only observed an effect with 4b. However, increasing the concentration to 20, 25 and 50 µM exerted a drastic impact on the viability of LNCaP cells. With 50 µM 4b a viability rate of final 5% was obtained, whereas 4a and 5 reduced the viability to 30 to 35%. Thus, the inhibitors in particular affected the viability of LNCaP carcinoma cells, but not of normal retinal pigment epithelium cells. […] Even after 48 h of growth under CK2 inhibition ARPE19 cells appeared rather unaffected by the treatment. […]
Figure 5 Effects of dibenzofuran inhibitors on cell viability. […] Cell viability was determined using the MTT assay after 24 h of incubation. […]
ARPE19 cells (ATCC Number: CRL-2302), retinal pigment epithelia (RPE) cells, were maintained at 37 °C and 5% CO2 in Dulbecco’s modified Eagles medium (DMEM) supplemented with 2 mM L-glutamine, 1 mM gentamicin and 10% fetal calf serum (FCS) at 37 °C in an atmosphere enriched with 5% CO2. […] For the evaluation of cell morphology ARPE19 and LNCaP cells were analysed with bright field microscopy using a Axiovert microscope from Zeiss (Jena, Germany).
Cell proliferation and viability was determined using a colorimetric MTT-based assay (MTT: 3-[4,5-dimethylthiazol-2-yl]-2,5-diphenyl tetrazolium bromide, Sigma-Aldrich, Deisenhofen, Germany) as described in [72]. […]
A general note: Tetrazolium assays rely on reduction of a dye to a coloured formazan, in cell work by metabolically active cells.

Assay [1] deals with caspases 3 and 7 in LNCaP cells. Description: Caspase-Glo 3/7 assay. The assay is classed as cell-based, human. The note with it: for caspase 3/7 activity, maximum obtained: 25 or 50 µM, 24 or 48 h; for caspase 3/7 activity: 50 µM, 48 h. The text has this: Reducing the activity of CK2 by the inhibitors is supposed to overcome the antiapoptotic effect of the enzyme and cells are induced to undergo apoptosis. […] In consequence, we analyzed in the next experiments whether the cells were killed by apoptosis. Hallmark of apoptosis is the activation of the key effector caspases 3 and 7 which ends in the cleavage of poly (ADP ribose) polymerase PARP1. The full-length PARP1 is cleaved by the caspases to an 89 and a 24 kDa fragment. These events of late apoptotic signaling were analyzed in ARPE19 and LNCaP cells grown in the presence and in the absence of dibenzofurans. Inhibitor concentrations of 25 and 50 µM were used and were applied for 24 and 48 h. In cell lysates of LNCaP and ARPE19 cells the activity of caspases 3 and 7 was determined subsequently by a luminescence based assay (Figure 6A).
(A) ARPE19 or LNCaP cells were treated with DMSO as control (0 μM) or with 25 or 50 μM 4b, 4a or 5 for 24 or 48 h. Activity of caspases 3 and 7 was determined using the luminescent Caspase-Glo® 3/7 assay according to the technical bulletin of the manufacturer. Median relative light units (RLU) + standard deviation from at least three independent experiments are shown in the bar graph. (B) Cells were treated as described before. 75 μg cell extract was separated in a 10% SDS polyacrylamide gel and analyzed in a Western blot analysis with a rabbit polyclonal antibody against PARP1. + is a positive control for PARP cleavage.
The activity of the apoptotic key effector caspases 3 and 7 in cell extracts was determined using the Caspase-Glo 3/7 assay according to the protocol of the manufacturer (Promega, Mannheim, Germany).

Results on three compounds are retold here after PMC5874719, “A π-Halogen Bond of Dibenzofuranones with the Gatekeeper Phe113 in Human Protein Kinase CK2 Leads to Potent Tight Binding Inhibitors” (Pharmaceuticals, 2018).

Regarding `COc1ccc(N/C=C2\C(=O)CCc3c2oc2cc(Cl)c(O)c(Cl)c32)cc1` [4a, 7,9-dichloro-1,2-dihydro-8-hydroxy-4-[(4-methoxyphenylamino)methylene]dibenzo[b,d]furan-3(2H)-one], the “cell viability reduced to” value in the assay with ARPE19 cells is 40%. In assay [1], the “caspase 3/7 activity, maximum obtained” value is given as 17,000 RLU.
Take `COc1ccc(/N=C/c2c(O)ccc3c2oc2cc(Cl)c(O)c(Cl)c23)cc1` [compound 5, (E)-1,3-dichloro-6-[(4-methoxyphenylimino)methyl]dibenzo[b,d]furan-2,7-diol]: the “impact on cell viability” value in the assay with ARPE19 cells (ARPE19, up to 50 µM) is reported as “no impact”. For the same compound, in assay [1], the “caspase 3/7 activity” value is > 50,000 RLU and the “caspase 3/7 activity, maximum obtained” value is given as 55,000 RLU.
`Cc1ccc(NC=C2C(=O)CCc3c2oc2c(Cl)c(Cl)c(O)cc32)cc1` [4b, 6,7-dichloro-1,4-dihydro-8-hydroxy-4-[(4-methylphenylamino)methylene]dibenzo[b,d]furan-3(2H)-one]: the “cell viability reduced to” value in the assay on ARPE19 cells was found to be 70%. Besides, in assay [1], the “caspase 3/7 activity” value is > 50,000 RLU.
